Reference: paper PMC8699473, “An Easily Expandable Multi-Drug LC-MS Assay for the Simultaneous Quantification of 57 Oral Antitumor Drugs in Human Plasma” (Cancers, 2021)

Assay: Short-term stability in spiked pooled human plasma (bench-top, 4 °C, 56 °C)
Conditions: for light sensitivity: acceptance limit <85%

SMILES | Short-time stability (1h, 56°C) Accuracy [%] (validation standard 2xLLOV) | Short-time stability (24h, 4°C, without daylight) Accuracy [%] (validation standard 2xLLOV) | Short-time stability (24h, RT, with daylight) Accuracy [%] (validation standard 2xLLOV) | Short-time stability (24h, RT, without daylight) Accuracy [%] (validation standard 2xLLOV) | Short-time stability (1h, 56°C) Accuracy [%] (validation standard LLOV) | Short-time stability (24h, 4°C, without daylight) Accuracy [%] (validation standard LLOV) | Short-time stability (24h, RT, with daylight) Accuracy [%] (validation standard LLOV) | Short-time stability (24h, RT, without daylight) Accuracy [%] (validation standard LLOV) | Short-time stability (1h, 56°C) Accuracy [%] (validation standard MOV) | Short-time stability (24h, 4°C, without daylight) Accuracy [%] (validation standard MOV) | Short-time stability (24h, RT, with daylight) Accuracy [%] (validation standard MOV) | Short-time stability (24h, RT, without daylight) Accuracy [%] (validation standard MOV) | Short-time stability (1h, 56°C) Accuracy [%] (validation standard ULOV) | Short-time stability (24h, 4°C, without daylight) Accuracy [%] (validation standard ULOV) | Short-time stability (24h, RT, with daylight) Accuracy [%] (validation standard ULOV) | Short-time stability (24h, RT, without daylight) Accuracy [%] (validation standard ULOV) | light sensitivity
CNC(=O)c1ccc(N2C(=S)N(c3cnc(C#N)c(C(F)(F)F)c3)C(=O)C23CCC3)cc1F [Apalutamide] | 46.5 | 93.0 | 76.8 | 80.8 | 37.6 | 96.9 | 72.0 | 75.7 | 41.2 | 84.3 | 75.7 | 75.2 | 29.0 | 84.2 | 63.9 | 63.8 | 
CNC(=O)c1ccccc1Sc1ccc2c(/C=C/c3ccccn3)n[nH]c2c1 [Axitinib] | 67.7 | 103.6 | 107.5 | 86.7 | 71.1 | 129.6 | 108.7 | 106.1 | 54.6 | 100.6 | 116.9 | 99.3 | 46.2 | 97.2 | 123.3 | 101.6 | no losses of concentrations below the acceptance limit
Cn1cnc2c(F)c(Nc3ccc(Br)cc3F)c(C(=O)NOCCO)cc21 [Binimetinib] | 55.9 | 105.5 | 89.3 | 86.4 | 68.1 | 117.1 | 111.6 | 106.0 | 42.6 | 94.8 | 86.5 | 89.2 | 36.7 | 96.8 | 101.8 | 97.3 | 
Cc1cc(Nc2ncc(Cl)c(Nc3ccccc3S(=O)(=O)C(C)C)n2)c(OC(C)C)cc1C1CCNCC1 [Ceritinib] | 39.7 | 95.5 | 66.9 | 72.2 | 42.5 | 102.1 | 70.9 | 77.7 | 34.6 | 93.9 | 84.1 | 92.2 | 32.0 | 92.7 | 91.8 | 96.2 | 
O=C(c1ccc(F)c(F)c1Nc1ccc(I)cc1F)N1CC(O)([C@@H]2CCCCN2)C1 [Cobimetinib] | 51.4 | 100.9 | 98.3 | 98.8 | 42.7 | 99.9 | 98.6 | 99.8 | 47.6 | 102.5 | 102.4 | 103.8 | 41.3 | 97.5 | 103.8 | 100.3 | 
C[C@@H](Oc1cc(-c2cnn(C3CCNCC3)c2)cnc1N)c1c(Cl)ccc(F)c1Cl [Crizotinib] |  |  | 85.9 | 92.4 |  |  | 62.9 | 71.2 |  |  | 95.3 | 99.8 |  |  | 85.2 | 89.5 | 
CC(C)(C)c1nc(-c2cccc(NS(=O)(=O)c3c(F)cccc3F)c2F)c(-c2ccnc(N)n2)s1 [Dabrafenib] | 46.2 | 99.6 | 98.0 | 107.6 | 42.8 | 112.7 | 97.0 | 108.2 | 42.4 | 100.0 | 97.7 | 99.3 | 35.6 | 94.0 | 100.2 | 99.7 | no losses of concentrations below the acceptance limit
COc1cc2ncnc(Nc3ccc(F)c(Cl)c3)c2cc1NC(=O)/C=C/CN1CCCCC1 [Dacomitinib] | 30.6 | 94.9 | 86.7 | 88.5 | 10.3 | 90.8 | 74.6 | 72.7 | 37.3 | 97.9 | 89.8 | 91.1 | 33.3 | 92.4 | 85.6 | 89.1 | 
Cc1nc(Nc2ncc(C(=O)Nc3c(C)cccc3Cl)s2)cc(N2CCN(CCO)CC2)n1 [Dasatinib] | 47.7 | 102.2 | 90.1 | 98.3 | 65.9 | 124.4 | 90.7 | 115.9 | 46.4 | 100.1 | 91.7 | 90.0 | 38.9 | 96.7 | 99.4 | 93.1 | 
COC(=O)N[C@@H](C)CNc1nccc(-c2cn(C(C)C)nc2-c2cc(Cl)cc(NS(C)(=O)=O)c2F)n1 [Encorafenib] | 54.9 | 106.5 | 109.5 | 112.9 |  | 110.1 | 108.1 | 104.0 | 54.0 | 102.1 | 105.9 | 109.8 | 44.5 | 98.5 | 108.8 | 108.3 | 
